Reference: US9868775B2, “Sfrp5-derived peptide fragment and cosmetic composition for skin whitening containing same” (KNU-INDUSTRY COOPERATION FOUNDATION, priority 2014, dated 2018)

What was measured:
[1] = tested on: MITF; assay: Western blotting, MITF protein expression in human epidermal melanocytes; assay type: cell-based; details: α-MSH, predetermined concentrations, 24 hours (FIG. 5)
Experimental: (§1) We evaluated the effects of the peptide fragment of the present invention on the protein expressions of the melanin-producing enzymes in human epidermal melanocytes, using a Western blotting assay. Human epidermal melanocytes (Cascade Biologics, #C-0245C; Portland, Oreg., USA) were added to each well of a 6-well microplate (1.5×10^5 cells per well), along with 2 ml of DMEM, and then stabilized through incubating in a 5% CO2 incubator at 37° C. for 24 hours. α-MSH (Sigma Co, MO, USA), a melanocyte-stimulating hormone, was treated to each well, along with the peptide fragment of the present invention (the peptide of SEQ ID NO: 8) in predetermined concentrations. After incubating the cells for 24 hours, the proteins were extracted therefrom. The obtained extracts were subject to the Western blotting assay using an anti-MITF antibody (ABcam, Ma, USA), an anti-tyrosinase antibody (Santa Cruz Co., CA, USA), an anti-TRP-1 antibody (Santa Cruz Co., CA, USA), and an anti-TRP-2 antibody (Santa Cruz Co., CA, USA), so as to measure the expression levels of MITF, tyrosinase, TRP-1, and TRP-2.

[2] = tested on: β-catenin; assay: Western blotting, β-catenin expression in human epidermal melanocytes; assay type: cell-based; details: α-MSH, predetermined concentrations, 48 hours (FIG. 2)
Experimental: (§2) The effects of the peptide fragment of the present invention on the β-catenin expression and the GSK-3 phosphorylation, which plays a critical role in the activation of Wnt signaling pathways, were evaluated using a Western blotting assay. Human epidermal melanocytes (Cascade Biologics, #C-0245C; Portland, Oreg., USA) were added to 2 ml of DMEM in each well of a 6-well microplate (1.5×10^5 cells per well). The cells were then stabilized through incubating in a 5% CO2 incubator at 37° C. for 24 hours. α-MSH (Sigma Co, MO, USA), a melanocyte-stimulating hormone, was treated to each well, along with the peptide fragment of the present invention (the peptide of SEQ ID NO: 8) in predetermined concentrations. After the cells were cultured for 48 hours, the proteins were extracted therefrom. The obtained extracts were subject to the Western blotting assay using an anti-β-catenin antibody (Santa Cruz Co., CA, USA) and an anti-pGSK-3 antibody (Cell SignalingTechnology, MA, USA), so as to measure the levels of β-catenin expression and GSK-3 phosphorylation changes. […] Therefore, it can be seen that the peptide fragments of the present invention can inhibit the Wnt signaling pathways in melanocytes.

[3] = tested on: mouse melanoma cell line B16F10; assay: inhibitory activity against melanin formation in B16F10; assay type: cell-based; details: B16F10, α-MSH 100 nM, peptide 0.1, 1, and 10 μM, 24 hours (FIG. 3)
Experimental: B16F10 cells (Korean Cell Line Bank, Seoul) were added to each well of a 6-well microplate (1.5×10^5 cells per well), along with 2 ml of DMEM, and then incubated in a 5% CO2 incubator at 37° C. for 24 hours. α-MSH (Sigma Co, MO, USA) (100 nM) was treated to each well, along with the peptide of SEQ ID NO: 8 in the final concentrations of 0.1, 1, and 10 μM. The groups in which α-MSH (100 nM) and arbutin (0.01%) were respectively treated were used as positive controls. After additionally incubating the cells for 24 hours, the pictures of each culture ware taken so as to compare the respective levels of melanin formation.

[4] = tested on: TRP-1; assay: Western blotting, TRP-1 protein expression in human epidermal melanocytes; assay type: cell-based; details: α-MSH, predetermined concentrations, 24 hours (FIG. 5)
Experimental: as §1

[5] = tested on: tyrosinase; assay: inhibitory activity against tyrosinase activity in B16F10 (L-DOPA, 490 nm); assay type: cell-based, mouse; details: B16F10, α-MSH, predetermined concentrations, 72 hours, 490 nm (FIG. 4)
Experimental: B16F10 cells (Korean Cell Line Bank, Seoul) were added to each well of a 24-well plate (5×10^4 cells per well), along with 1 ml of DMEM, and then stabilized through incubating in a 5% CO2 incubator at 37° C. for 24 hours. α-MSH (Sigma Co, MO, USA), a melanocyte-stimulating hormone, was treated to each well, along with the peptide of SEQ ID NO: 8 in predetermined concentrations. After incubating the cells for 72 hours, the proteins were extracted therefrom. The obtained extracts were added to each well of a 96-well plate ([…] per each well) and then treated with a L-dihydroxyphenylalanine (L-DOPA) solution (100 μL) at 37° C. for 2 hours. The groups in which α-MSH (100 nM) and arbutin (0.01%) were respectively treated were used as positive controls. After 2 hours, the pictures thereof were taken and the tyrosinase activities thereof were measured at 490 nm with a microreader.

[6] = tested on: TRP-2; assay: Western blotting, TRP-2 protein expression in human epidermal melanocytes; assay type: cell-based; details: α-MSH, predetermined concentrations, 24 hours (FIG. 5)
Experimental: as §1

[7] = tested on: tyrosinase; assay: Western blotting, tyrosinase protein expression in human epidermal melanocytes; assay type: cell-based; details: α-MSH, predetermined concentrations, 24 hours (FIG. 5)
Experimental: as §1

[8] = tested on: TRP-2; assay: RT-PCR, TRP-2 gene expression in human epidermal melanocytes; assay type: cell-based; details: α-MSH, predetermined concentrations, 72 hours, RT-PCR (FIG. 6)
Experimental: (§3) Human epidermal melanocytes were added to each well of a 6-well plate (1.5×10^5 cells per well), along with 2 ml of DMEM, and then stabilized through incubating in a 5% CO2 incubator at 37° C. for 24 hours. α-MSH (Sigma Co, MO, USA), a melanocyte-stimulating hormone, was treated to each well, along with the peptide of SEQ ID NO: 8 in predetermined concentrations. After incubating the cells for 72 hours, the total RNAs were extracted therefrom and then cDNAs were synthesized. The cDNA syntheses were carried out with a Reverse Transcription Master premix (Elpisbiotech, Daejeon, Korea). Using each synthesized cDNA as a template, reverse transcription polymerase chain reactions (RT-PCR) were carried out with a ROTOR Q GENE apparatus. Each RT-PCR solution was prepared by mixing 1 μl of cDNA, 10 μl of TOPreal qRT-PCR2X premix (Enzynomics, Daejeon, Korea), 2 μl of primer set (10 pmol) and 7 μl of D.W. The RT-PCR was carried out as follows: initially at 94° C. for 10 minutes; and then at 94° C. for 10 seconds, at 58° C. for 30 seconds, and at 72° C. for 1 minute; 40 cycles.

[9] = tested on: MITF; assay: RT-PCR, MITF gene expression in human epidermal melanocytes; assay type: cell-based; details: α-MSH, predetermined concentrations, 72 hours, RT-PCR (FIG. 6)
Experimental: as §3

[10] = tested on: tyrosinase (TYR); assay: RT-PCR, tyrosinase gene expression in human epidermal melanocytes; assay type: cell-based; details: α-MSH, predetermined concentrations, 72 hours, RT-PCR (FIG. 6)
Experimental: as §3

[11] = tested on: TRP-1; assay: RT-PCR, TRP-1 gene expression in human epidermal melanocytes; assay type: cell-based; details: α-MSH, predetermined concentrations, 72 hours, RT-PCR (FIG. 6)
Experimental: as §3

[12] = tested on: MITF and β-catenin; assay: in situ proximity ligation assay, binding between MITF and β-catenin; assay type: cell-based, mouse; details: B16F1 cells, similar methods to CREB test (FIG. 1c)
Experimental: The effects of the peptide fragments of the present invention on the β-catenin activation, which plays a critical role in Wnt signaling pathways, were evaluated using an in situ proximity ligation assay. The evaluation was performed with a commercially available kit, i.e., DUOLINK II in situ kit from Olink Bioscience, Sweden.
The mouse melanoma cell line B16F1 cells (Korean Cell Line Bank, Seoul) were added to 1 ml of DMEM in each well of a 24-well plate (5×10^4 cells per well), each well having a 12 mm glass in the bottom thereof. The cells were then stabilized through incubating in a 5% CO2 incubator at 37° C. for 24 hours. α-MSH (Sigma Co, MO, USA), a melanocyte-stimulating hormone (0.1 μM), and the peptide fragments of the present invention (1 μM) were treated to each well. The cells were cultured in a 5% CO2 incubator at 37° C. for 24 hours and then fixed with 4% paraformaldehyde. After a drop of the blocking solution was added to the cells on the 12 mm glass, the cells were then incubated at 37° C. for 30 minutes. Activation of the Wnt receptor increases the interaction between CREB (cyclic AMP response element-binding) and β-catenin. For determining the interaction levels thereof, the cells were treated with an anti-CREB polyclonal antibody (Santa Cruz Co., CA, USA) and an anti-β-catenin mouse monoclonal antibody (Santa Cruz Co., CA, USA) at 37° C. After incubating 30 minutes therefrom, the cells were treated with the PLA probe solution at 37° C. for 1 hour, with the ligation solution for 30 minutes, and then with the amplification solution for 100 minutes. After washing the cells with the washing buffer, the number of the red spots was measured with a confocal microscopy. In FIGS. 1a and 1b, the control means the group of no treatment and the α-MSH means the group treated with only α-MSH (i.e., without peptide treatment).
And also, according to similar methods in the above, we investigated the inhibitory effects of the peptides of SEQ ID NOs: 5, 8, and 9 on the binding between MITF and β-catenin.

[13] = tested on: GSK-3; assay: Western blotting, GSK-3 phosphorylation in human epidermal melanocytes; assay type: cell-based; details: α-MSH, predetermined concentrations, 48 hours (FIG. 2)
Experimental: as §2

Q: Which results are given for “Ala-Gln-Lys (AQK; Petide fragment) [SEQ ID NO: 8, Sfrp5-derived peptide fragment]”?
A: expression level of MITF (protein) [1]: decreased; level of β-catenin expression [2]: decreased; melanin formation (brown colors of cell culture) [3]: decreased according to the concentrations of the peptide; expression level of TRP-1 (protein) [4]: decreased; tyrosinase activity [5]: decreased in concentration-dependent manner; expression level of TRP-2 (protein) [6]: decreased; expression level of tyrosinase (protein) [7]: decreased; gene expression of TRP-2 [8]: decreased in concentration-dependent manner; gene expression of MITF [9]: decreased in concentration-dependent manner; gene expression of tyrosinase (TYR) [10]: decreased in concentration-dependent manner; gene expression of TRP-1 [11]: decreased in concentration-dependent manner; bindings between MITF and β-catenin [12]: significantly decreased; level of GSK-3 phosphorylation [13]: decreased

Q: How did the “bindings between MITF and β-catenin” value [12] turn out when “Cys-Glu-Ala-Val (CEAV; Peptide fragment) [SEQ ID NO: 9, Sfrp5-derived peptide fragment]” was run?
A: significantly decreased

Q: Which “bindings between MITF and β-catenin” value [12] does the source give for “Lys-Ile-Gly (KIG; Petide fragment) [SEQ ID NO: 5, Sfrp5-derived peptide fragment]” here?
A: significantly decreased

Q: What does the source list for “α-MSH: a melanocyte-stimulating hormone (Sigma Co, MO, USA), used as stimulant [reference compound]”?
A: tyrosinase activity [5]: increased; gene expression of TRP-2 [8]: increased; gene expression of MITF [9]: increased; gene expression of tyrosinase (TYR) [10]: increased; gene expression of TRP-1 [11]: increased
